pKi: −log10 of the molar value.
Experiments:
Conditions in all cases: average of at least two experiments
[1] = molecular target: Alpha1B adrenergic receptor (Homo sapiens (Human), UniProt P35368); assay: Secondary radioligand binding assay, Alpha1B; design: key to Ki Alpha1B: “—” indicates that a binding interaction was not detected
Description: 1. Secondary Radioligand Binding Assays The detailed experimental protocols for the radioligand and functional receptor assays are available on the NIMH PDSP website at http://pdsp.med.unc.edu/UNC-CH %20Protocol %20Book.pdf. Raw data (dpm) representing total radioligand binding (i.e. specific+non-specific binding) are plotted as a function of the logarithm of the molar concentration of the competitor (i.e. test or reference compound). […] C. Adrenergic Receptors: α1A, α1B, α2A, α2B, α2C, β1, β2, β3 Assay Buffers: For α1 receptors, α1 Binding Buffer (20 mM Tris-HCl, 145 mM NaCl, pH 7.4); for α2 receptors, α2 Binding Buffer (50 mM Tris-HCl, 5 mM MgCl2, pH 7.7); for β receptors, β Binding Buffer (50 mM Tris-HCl, 3 mM MnCl2, pH 7.7) Membrane Fraction Source: Transiently or stably transfected cell lines (e.g. HEK293, COS, CHO, NIH3T3) Protocol adapted from Arango et al. […] (1990), Gen. Psychiatry, 47: 1038-1047. The method is carried out in the manner described for the serotonin receptor assay above, except where described below. Eleven dilutions (5× assay concentration) of the test and reference (see Table 20) compounds are prepared in the appropriate buffer by serial dilution, as previously described. Radioligand is diluted to five times the assay concentration (see Table 21) in the appropriate buffer. […] Four rapid 500-μl washes are performed with chilled distilled water (for α1 and β receptors) or 0.1% polyethyleneimine (for α2 receptors) to reduce non-specific binding. Filters are placed in 6 ml scintillation tubes and allowed to dry overnight and the samples are treated to obtain data as described above. [table]

dopamine D1 receptor = dopamine D1 receptor (Homo sapiens (Human), UniProt P21728); assay: Secondary radioligand binding assay, D1; design: key to Ki D1: “—” indicates that a binding interaction was not detected
Sequence of dopamine D1 receptor (P21728 whole entry): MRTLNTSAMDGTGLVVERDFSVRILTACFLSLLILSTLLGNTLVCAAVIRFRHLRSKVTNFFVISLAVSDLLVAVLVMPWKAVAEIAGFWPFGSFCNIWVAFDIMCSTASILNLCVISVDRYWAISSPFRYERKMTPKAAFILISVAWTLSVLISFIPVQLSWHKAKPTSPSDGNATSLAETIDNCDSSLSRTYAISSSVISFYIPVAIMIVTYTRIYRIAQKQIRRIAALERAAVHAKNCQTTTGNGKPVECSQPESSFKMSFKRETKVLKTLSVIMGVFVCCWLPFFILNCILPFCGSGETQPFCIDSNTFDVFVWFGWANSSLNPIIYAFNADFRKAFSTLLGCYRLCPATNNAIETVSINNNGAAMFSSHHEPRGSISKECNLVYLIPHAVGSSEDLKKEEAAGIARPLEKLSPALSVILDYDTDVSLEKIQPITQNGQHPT
Procedure: 1. Secondary Radioligand Binding Assays
The detailed experimental protocols for the radioligand and functional receptor assays are available on the NIMH PDSP website at http://pdsp.med.unc.edu/UNC-CH %20Protocol %20Book.pdf.
Radioligand is diluted to five times the assay concentration (see Table 18) in Standard Binding Buffer. Typically, the assay concentration of radioligand is a value between one half the KD and the KD of a particular radioligand at its target. 50 μl aliquots of radioligand are dispensed into the wells of a 96-well plate containing 100 μl of Standard Binding Buffer. Then, duplicate 50 μl aliquots of the test and reference compound dilutions are added.
The 250 μl reactions are incubated at room temperature and shielded from light (to prevent photolysis of light-sensitive ligands) for 1.5 hours, then harvested by rapid filtration onto Whatman GF/B glass fiber filters pre-soaked with 0.3% polyethyleneimine using a 96-well Brandel harverster. Four rapid 500 μl washes are performed with chilled Standard Binding Buffer to reduce non-specific binding. Filters are placed in 6 ml scintillation tubes and allowed to dry overnight. The next day, 4 ml of EcoScint scintillation cocktail (National Diagnostics) are added to each tube. The tubes are capped, labeled, and counted by liquid scintillation counting. […] The filter mats are dried, then scintillant is melted onto the filters and the radioactivity retained on the filters is counted in a Microbeta scintillation counter.
Raw data (dpm) representing total radioligand binding (i.e. specific+non-specific binding) are plotted as a function of the logarithm of the molar concentration of the competitor (i.e. test or reference compound).
B. Dopamine Receptors: D1, D2, D3, D4, D5 Assay Buffers: Dopamine Binding Buffer (50 mM NaCl, 50 mM HEPES-HCl, 5 mM MgCl2, 0.5 mM EDTA, pH 7.4) Membrane Fraction Source: Transiently or stably transfected cell lines (e.g. HEK293, COS, CHO, NIH3T3)
The method is carried out in the manner described for the serotonin receptor assay above. Eleven dilutions (5× assay concentration) of the test and reference (see Table 19) compounds are prepared in Dopamine Binding Buffer by serial dilution, as previously described. Radioligand is diluted to five times the assay concentration (see Table 20) in Dopamine Binding Buffer.

5HT6 receptor = 5HT6 receptor (Homo sapiens (Human), UniProt P50406); assay: Secondary radioligand binding assay, 5HT6; design: key: “—” indicates that a binding interaction was not detected;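 note: competition displacement of radioligand from membranes of transfected cell lines expressing the receptor, 1.5 h at room temperature, bound radioactivity counted by scintillation after filtration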
Sequence of 5HT6 receptor (P50406 whole entry): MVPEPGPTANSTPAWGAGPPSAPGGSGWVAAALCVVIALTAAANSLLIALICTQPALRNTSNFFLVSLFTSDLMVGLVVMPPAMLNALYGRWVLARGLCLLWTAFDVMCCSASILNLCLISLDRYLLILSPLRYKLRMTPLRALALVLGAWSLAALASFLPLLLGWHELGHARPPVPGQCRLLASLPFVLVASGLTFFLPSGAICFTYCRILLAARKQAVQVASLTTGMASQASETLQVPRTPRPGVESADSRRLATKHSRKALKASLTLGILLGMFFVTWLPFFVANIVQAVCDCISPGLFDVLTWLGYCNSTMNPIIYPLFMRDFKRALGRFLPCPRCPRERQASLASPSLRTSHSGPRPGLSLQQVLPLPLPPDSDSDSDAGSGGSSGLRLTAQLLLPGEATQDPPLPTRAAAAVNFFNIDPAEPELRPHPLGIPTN

5HT4 receptor = 5HT4 receptor (Homo sapiens (Human), UniProt Q13639); assay: Secondary radioligand binding assay, 5HT4; design: key: “—” indicates that a binding interaction was not detected
Sequence of 5HT4 receptor (Q13639 whole entry): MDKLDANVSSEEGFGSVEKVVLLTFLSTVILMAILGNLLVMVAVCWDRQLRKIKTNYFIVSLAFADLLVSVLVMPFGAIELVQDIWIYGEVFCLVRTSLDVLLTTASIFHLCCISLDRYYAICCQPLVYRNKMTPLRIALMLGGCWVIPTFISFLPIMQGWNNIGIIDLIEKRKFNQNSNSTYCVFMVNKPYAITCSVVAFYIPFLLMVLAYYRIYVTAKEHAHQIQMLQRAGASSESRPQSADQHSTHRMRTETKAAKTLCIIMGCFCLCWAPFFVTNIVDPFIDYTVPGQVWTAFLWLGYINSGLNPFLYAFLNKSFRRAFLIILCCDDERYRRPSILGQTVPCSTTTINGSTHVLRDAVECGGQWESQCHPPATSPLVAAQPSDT
Procedure: 1. Secondary Radioligand Binding Assays The detailed experimental protocols for the radioligand and functional receptor assays are available on the NIMH PDSP website at http://pdsp.med.unc.edu/UNC-CH %20Protocol %20Book.pdf. Assay Buffer: Standard Binding Buffer (50 mM Tris-HCl, 10 mM MgCl2, 1 mM EDTA, pH 7.4) Membrane Fraction Source: Transiently or stably transfected cell lines (e.g., HEK293, COS, CHO, NIH3T3) Protocol adapted from Roth et al. (1986), J. Pharmacol. Exp. Ther., 238(2): 480-485; and Roth et al. (1994), J. Pharmacol. Exp. Ther., 268(3): 1403-1410. […] A similar stock of a reference compound (positive control) is also prepared. […] Radioligand is diluted to five times the assay concentration (see Table 18) in Standard Binding Buffer. Typically, the assay concentration of radioligand is a value between one half the KD and the KD of a particular radioligand at its target. 50 μl aliquots of radioligand are dispensed into the wells of a 96-well plate containing 100 μl of Standard Binding Buffer. Then, duplicate 50 μl aliquots of the test and reference compound dilutions are added. Finally, crude membrane fractions of cells expressing recombinant target (prepared from 10 cm plates by harvesting PBS-rinsed monolayers, resuspending and lysing in chilled, hypotonic 50 mM Tris-HCl, pH 7.4, centrifuging at 20,000×g, decanting the supernatant and storing at −80° C.; typically, one 10 cm plate provides sufficient material for 24 wells), are resuspended in 3 ml of chilled Standard Binding Buffer and homogenized by several passages through a 26 gauge needle, then 50 μl are dispensed into each well. […] Four rapid 500 μl washes are performed with chilled Standard Binding Buffer to reduce non-specific binding. Filters are placed in 6 ml scintillation tubes and allowed to dry overnight. The next day, 4 ml of EcoScint scintillation cocktail (National Diagnostics) are added to each tube. The tubes are capped, labeled, and counted by liquid scintillation counting. For higher throughput assays, bound radioactivity is harvested onto 0.3% polyethyleneimine-treated, 96-well filter mats using a 96-well Filtermate harvester. The filter mats are dried, then scintillant is melted onto the filters and the radioactivity retained on the filters is counted in a Microbeta scintillation counter. Raw data (dpm) representing total radioligand binding (i.e. specific+non-specific binding) are plotted as a function of the logarithm of the molar concentration of the competitor (i.e. test or reference compound).

5HT7 receptor = 5HT7 receptor (Homo sapiens (Human), UniProt P34969); assay: Secondary radioligand binding assay, 5HT7; design: key to Ki 5HT7: “—” indicates that a binding interaction was not detected;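 note: competition of test compound with radioligand for binding to membranes from transfected cell lines, 1.5 h incubation at room temperature, filter-bound radioactivity read by liquid scintillation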
Sequence of 5HT7 receptor (P34969 whole entry): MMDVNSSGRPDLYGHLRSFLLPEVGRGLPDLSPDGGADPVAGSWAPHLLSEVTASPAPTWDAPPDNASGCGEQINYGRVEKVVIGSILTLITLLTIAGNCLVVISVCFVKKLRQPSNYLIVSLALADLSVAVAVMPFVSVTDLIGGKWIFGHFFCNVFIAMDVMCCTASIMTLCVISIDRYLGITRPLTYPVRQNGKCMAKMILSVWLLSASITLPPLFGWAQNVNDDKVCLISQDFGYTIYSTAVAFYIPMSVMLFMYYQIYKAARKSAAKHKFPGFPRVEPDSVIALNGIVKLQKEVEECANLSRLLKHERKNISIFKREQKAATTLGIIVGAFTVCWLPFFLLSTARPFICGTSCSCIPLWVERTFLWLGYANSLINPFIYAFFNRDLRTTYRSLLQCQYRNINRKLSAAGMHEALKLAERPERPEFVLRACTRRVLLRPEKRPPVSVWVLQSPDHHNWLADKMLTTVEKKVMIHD

Sequence of Alpha1B adrenergic receptor (P35368 whole entry): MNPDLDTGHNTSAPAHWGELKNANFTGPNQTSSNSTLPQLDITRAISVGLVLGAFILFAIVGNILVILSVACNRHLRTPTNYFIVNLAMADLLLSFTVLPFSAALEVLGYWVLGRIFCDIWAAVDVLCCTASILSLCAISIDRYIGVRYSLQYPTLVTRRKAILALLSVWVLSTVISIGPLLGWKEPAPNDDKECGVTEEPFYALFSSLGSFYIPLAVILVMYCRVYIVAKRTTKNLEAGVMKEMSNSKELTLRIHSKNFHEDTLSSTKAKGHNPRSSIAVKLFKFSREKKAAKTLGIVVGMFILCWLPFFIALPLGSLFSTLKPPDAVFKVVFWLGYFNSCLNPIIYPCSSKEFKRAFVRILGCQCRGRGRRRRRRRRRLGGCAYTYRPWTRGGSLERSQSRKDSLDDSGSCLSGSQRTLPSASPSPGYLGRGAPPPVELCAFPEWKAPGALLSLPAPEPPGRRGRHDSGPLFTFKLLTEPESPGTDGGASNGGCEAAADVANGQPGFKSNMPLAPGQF

SMILES	Ki Alpha1B [1]	Ki D1 (dopamine D1 receptor)	Ki 5HT6 (5HT6 receptor)	Ki 5HT4 (5HT4 receptor)	Ki 5HT7 (5HT7 receptor)	pKi (dopamine D1 receptor)	pKi [1]	pKi (5HT7 receptor)
Cc1ncccc1OC[C@@H]1CN(CCN2CCc3ccccc32)CCO1 [Compound 26s, (S)-4-(2-(Indolin-1-yl)ethyl)-2-(((2-methylpyridin-3-yl)oxy)methyl)morpholine]	—	—	—	—	—			
O=C(CN1CCO[C@@H](COc2cccc(Cl)c2)C1)N1CCc2ccccc21 [Compound 22r, (R)-2-(2-((3-chlorophenoxy)methyl)morpholino)-1-(indolin-1-yl)ethanone]	—	—	—	—	—			
c1cncc(OC[C@H]2CN(CCN3CCc4ccccc43)CCO2)c1 [Compound 21r, (R)-4-(2-(Indolin-1-yl)ethyl)-2-((pyridin-3-yloxy)methyl)morpholine]	—		—	—	—	< 5.00		
O=C(CN1CCO[C@H](COc2cccc(Cl)c2)C1)N1CCc2ccccc21 [Compound 22s, (S)-2-(2-((3-Chlorophenoxy)methyl)morpholino)-1-(indolin-1-yl)ethanone]	—	—	—	—	—			
CC1Cc2ccccc2N1C(=O)CN1CCO[C@H](COc2cccc(Cl)c2)C1 (stereo partly drawn) [Compound 64]	—	—	—	—	—			
Cc1ncccc1OC[C@@H]1CN(CC(=O)N2c3ccccc3CC2C)CCO1.Cl (stereo partly drawn) [Compound 60]	—		—	—	—	< 5.00		
O=C(CN1CCO[C@H](COc2cccnc2)C1)N1CCc2ccccc21 [Compound 20s, (S)-1-(Indolin-1-yl)-2-(2-((pyridin-3-yloxy)methyl)morpholino)ethanone]	—	—	—	—	—			
CC1Cc2ccccc2N1C(=O)CN1CCO[C@@H](COc2cccc(Cl)c2)C1 (stereo partly drawn) [Compound 65]	—	—	—	—	—			
Cc1ccccc1OC[C@H]1CN(CC(=O)N2c3ccccc3CC2C)CCO1 (stereo partly drawn) [Compound 66]	—	—	—	—	—			
Cc1ccc(OC[C@H]2CN(CCN3CCc4ccccc43)CCO2)cn1 [Compound 28r, (R)-4-(2-(Indolin-1-yl)ethyl)-2-(((6-methylpyridin-3-yl)oxy)methyl)morpholine]	—	—	—	—	—			
Cc1ccnc(C)c1OC[C@H]1CN(CCN2CCc3ccccc32)CCO1 [Compound 29r, (R)-2-(((2,4-Dimethylpyridin-3-yl)oxy)methyl)-4-(2-(indolin-1-yl)ethyl)morpholine]	—	—	—	—	—			
Cc1ccnc(OC[C@H]2CN(CCN3CCc4ccccc43)CCO2)c1 [Compound 17r, (R)-4-(2-(Indolin-1-yl)ethyl)-2-(((4-methylpyridin-2-yl)oxy)methyl)morpholine]	—		—	—	—	< 5.00		
Clc1cccc(OC[C@H]2CN(CCN3CCc4ccccc43)CCO2)c1 [Compound 23r, (R)-2-((3-Chlorophenoxy)methyl)-4-(2-(indolin-1-yl)ethyl)morpholine]	—	—	—	—	—			
COc1cccc(OC[C@@H]2CN(CC(=O)N3CCc4ccccc43)CCO2)c1 [Compound 24s, (S)-1-(Indolin-1-yl)-2-(2-((3-methoxyphenoxy)methyl)morpholino)ethanone]	—	—	—	—	—			
Cc1ncccc1OC[C@H]1CN(CC(=O)N2c3ccccc3CC2C)CCO1 (stereo partly drawn) [Compound 62]	—	—	—	—	—			
Clc1cncc(OC[C@@H]2CN(CCN3CCc4ccccc43)CCO2)c1 [Compound 27s, (S)-2-(((5-Chloropyridin-3-yl)oxy)methyl)-4-(2-(indolin-1-yl)ethyl)morpholine]	—		—	—	—	5.23		
Cc1ccnc(OC[C@H]2CN(CC(=O)N3CCc4ccccc43)CCO2)c1 [Compound 16r]	—		—	—	—	< 5.00		
c1ccc(OC[C@@H]2CN(CCN3CCc4ccccc43)CCO2)cc1 [Compound 19s, (S)-4-(2-(Indolin-1-yl)ethyl)-2-(phenoxymethyl)morpholine]			—	—		5.87	5.14	6.33

— US9079895B2, “Morpholino compounds, uses and methods” (University of Dundee, priority 2012, dated 2015)
